Patent publication US20090317372A1, “SMALL MOLECULES FOR THE REDUCTION OF HIGH BLOOD GLUCOSE LEVEL” (priority 2008, published 2009)

How the values were obtained:
Assay type in all cases: in vivo
C57/BL/6 mice [1] = test: Glucose tolerance test with normal mice, CCcompound1 and sub-optimal insulin; conditions: CCcompound1 4.5-mg/kg i.p. 60 min and/or insulin 0.02 IU 15 min prior to glucose
Procedure: In this experiment, a sub-optimal dose of insulin (0.02 international unit-IU) was used to probe if CCcompound1 indeed can enhance the effect of insulin on blood glucose. Again C57/BL/6 female mice weighing 22-23-g and fasted for 14 hours prior to i.p. glucose administration (3-g/kg), were used. None of the animals received any food during the experiment other than glucose. The animals received i.p. injections of 4.5-mg/kg of CCcompound1 and/or 0.02 Unit insulin 60 min and 15 min prior to glucose administration, respectively. Blood samples were taken and glucose concentrations measured as indicated earlier. Each group included six animals. The data are the mean±std. dev. of 6 determinations, i.e. one determination with each of the six animals.

[2] = system: BDF1 (C57/BL/6 female×DBA/2 male) mice; test: Glucose tolerance test with BDF1 mice, CCcompound1 and sub-optimal insulin; conditions: CCcompound1 4.5-mg/kg i.p. −15 min and/or insulin 0.02 IU −10 min
Procedure: In this experiment again, a sub-optimal dose of insulin was used to probe if CCcompound1 can enhance the effect of insulin on blood glucose. This time first generation hybrid BDF1 (C57/BL/6 female×DBA/2 male) adult (10-12 weeks old) male mice weighing 28-30-g and fasted for 14 hours before i.p. glucose administration (3-g/kg) were used. These mice were […] than mice in the previous experiment described under Example 5. None of the animals received any food during the experiment other than glucose. The animals received i.p. injections of 4.5-mg/kg of CCcompound1 and 0.02 IU of insulin 15 min and 10 min prior to glucose administration. Blood samples were taken and glucose concentrations in whole blood samples determined as described earlier. Each group included six animals. The data are the mean±std. dev. of 6 determinations, i.e. one determination with each of the six animals.

ob/ob mice [3] = test: Blood glucose in ob/ob mice, CCcompound1 combined with human proteins AGP and TF
Procedure: For each experimental group, ob/ob mice were chosen (5 mice in each group) that were 43 days old and weighed on average 40.3±1.9-g on the first day of experiment. Three groups of mice were treated with s.c. injection of 4.5-mg/kg CCcompound1 once every day for 17 days. Mice in one of these CCcompound1-treated groups received no other treatment, and their blood was drawn for glucose analysis on day 14 and 17 exactly 45 min after treatment. The second CCcompound1-treated group also received 0.5-mg/mouse (˜11 mg/kg) dose of greater than 98% pure commercial human transferrin [catalogue number, T 3309 according to 2004/2005 Sigma catalogue]. In this second group the blood was drawn on day 14 just prior to TF administration and on day 17 two hours after TF and 45 min after CCcompound1 administration. An additional group of animals received only TF treatment. The third CCcompound1-treated group also received 1.2-mg/mouse (26.6-mg/kg) dose of >99% pure human AGP [catalogue number G 9885 according to 2004/2005 Sigma catalogue]; in this group the blood was drawn on day 14 just prior to AGP administration and on day 17 two hours and 45 minutes after administration of AGP and CCcompound1, respectively. An additional group of animals received only AGP treatment, and yet another group of animals received no treatment at all. On day 1, prior to any treatment, the blood glucose level of all animals was in the range of 7.2-7.9 mM.

ob/ob mice [4] = test: Blood glucose level of normally fed ob/ob obese diabetic mice, daily treatment; conditions: second experiment
Excerpt: Adult female leptin-deficient ob/ob obese diabetic inbred specified pathogen free (SPF) hygienic category mice from Charles River VRF1 were used for these experiments. The mice weighed 32-36-g at arrival. The ob/ob obese mouse is an extensively used animal model for the study of non-insulin-dependent-diabetes mellitus (NIDDM). The mutation was propagated in the C57BL/6J (BL/6) inbred strain. Homozygous obese (ob/ob) animals developed hyperglycemia due to insulin resistance, hyperinsulinemia (to compensate for reduced insulin action), and obesity. In these animals gluconeogenesis is enhanced despite their hyperinsulinemic state. The animals were kept in macrolon cages at 22-24° C. and 50-60% humidity, with lighting regimen of 12/12 h light dark. They had free access to tap water and were fed a sterilized standard diet (Charles River VRF1, autoclavable). The animals were cared for according to the “Guiding Principles for the Care and Use for Animals” based upon the Helsinki declaration. The ob/ob mice gained weight rapidly and developed a marked obesity by 5-6 weeks of age. […] When arrived they were 5 weeks old (when the experiment was performed with CCcompound1) or 4.5 weeks old (when the experiment was performed with CCcompound3 and CCcompound19). The treatments started 8 days later in the experiment performed with CCcompound1 and 10 days later in the experiment performed with CCcompound3 and CCcompound19. Experimental groups selected from ob/ob mice were injected subcutaneously (s.c.) at regular intervals once daily for 14 days with CCcompound1 or an analog (CCcompound3 or CCcompound19) each at the dose of 4.5-mg per kg. Control groups were also selected from ob/ob mice that remained untreated during the entire length of the experiment. In the first experiment, for which the data is presented in TABLE 11, blood samples were taken either 45 min or 6 hours after treatments with CCcompound1. In the second experiment, for which the data is presented in TABLE 12, blood samples were taken 45 min after treatments with the analogs of CCcompound1. Blood glucose was determined with the Fast Glucose C test. Both the untreated and CC compound-treated groups included 5 animals. The data are the mean±std. dev.

C57/BL/6 mice [5] = test: Glucose tolerance test with normal mice (CC1, CC3, CC19); conditions: for Reduction of blood glucose level: 30th min of test period
Procedure: C57/BL/6 female mice weighing 22-23-g and fasted for 14 hours before intraperitoneal (i.p.) administration of glucose (3-g/kg) were used. None of the animals received any food during the experiment other than glucose. The animals received i.p. injections of 4.5-mg/kg of CCcompound1, CCcompound3, or CCcompound19 either 1 hour or 24 hours prior to glucose administration as indicated in TABLE 3. Blood samples were taken from the eyes (canthus), and glucose concentrations in whole blood samples were immediately measured with the Fast Glucose C test. Each group included six animals. The data, shown in TABLE 3, are the mean±std. dev. of 6 determinations, i.e. one determination with each of the six animals. In this and all subsequent experiments the values at 0 min reflect glucose concentration in blood samples collected 1-5 minutes prior to the administration of glucose.

Wistar rats = test: Glucose tolerance test in starved rats
Procedure: Male Wistar rats weighing 240-270-g were divided into 3 groups, each group consisting of 6 or 7 animals. To ensure standard conditions animals were starved for 14 hours before the start of the experiment. CCcompound1 and CCcompound3 were injected (i.p.) 30 min prior to injecting 3-g/kg of glucose (i.p.). Blood sugar values of the experimental animals were measured with the Fast Glucose C-test; blood samples were taken from the tail. The data are the mean±std. dev. of 6-7 determinations, i.e. one determination with each of the 6-7 animals in the respective groups.

C57/BL/6 mice [6] = test: Glucose tolerance test with normal mice, PALP and CCcompound1 combined; conditions: PALP 0.4 mg/mouse i.p. −24 h
Procedure: Female C57/BL/6 mice weighing 24-26-g and fasted for 12 hours before i.p. glucose administration (3 g/kg) were used. None of the animals received any food during the experiment other than glucose. One group of animals was untreated while animals in other groups received subcutaneous (s.c.) injections of 2.0 or 4.5-mg/kg of CCcompound1 either 30 min or 60 min prior to glucose administration as indicated in TABLE 5. Two groups of animals received i.p. injections of 0.4-mg per mouse (˜16-mg per kg) of highly purified PALP 24 hours prior to glucose administration. Purification of PALP was described in detail earlier [Z. Kiss, U.S. Pat. No. 7,048,914, “Placental Alkaline Phosphatase to Control Diabetes]. Animals in one of the PALP treated group also received s.c. injections of 4.5-mg/kg of CCcompound1 30 min prior to glucose administration as indicated in TABLE 5. Blood samples were taken and glucose concentrations were immediately measured as described earlier. Each group included five animals. The data are the mean±std. dev. of 5 determinations, i.e. one determination with each of the five animals. “-min” and “-h” indicates the length of period in minutes and hours, respectively, elapsed between the administration of test agents (first) and glucose (second).

[7] = 14th day, CC1 4.5-mg/kg s.c. daily, 45 min after treatment, blood drawn just prior to AGP or TF administration
[8] = 17th day, 45 min after CC1 4.5-mg/kg s.c., two hours after TF 0.5-mg/mouse or AGP 1.2-mg/mouse
[9] = 4.5-mg/kg s.c. once daily, 45 min after treatment, day 1
[10] = 4.5-mg/kg s.c. once daily, day 0
[11] = 4.5-mg/kg i.p. 1 h prior to glucose 3-g/kg i.p., 0 min
[12] = 4.5-mg/kg i.p. 1 h prior to glucose
[13] = 4.5-mg/kg i.p. 1 h prior to glucose, 30 min
[14] = 4.5-mg/kg i.p. 1 h prior to glucose, 60 min
[15] = 4.5-mg/kg i.p. 1 h prior to glucose, 120 min
[16] = 4.5-mg/kg i.p. 1 h prior to glucose, 180 min

Insulin: insulin, sub-optimal dose 0.02 IU [reference compound]
Blood glucose (C57/BL/6 mice [1]; 0 min): 2.1 ± 0.6 mM
Blood glucose (C57/BL/6 mice [1]; 30 min): 7.2 ± 0.4 mM
Blood glucose (C57/BL/6 mice [1]; 60 min): 5.6 ± 0.5 mM
Blood glucose (C57/BL/6 mice [1]; 120 min): 3.8 ± 0.4 mM
Blood glucose ([2]; 0 min): 3.1 ± 0.4 mM
Blood glucose ([2]; 30 min): 6.4 ± 0.5 mM
Blood glucose ([2]; 60 min): 5.6 ± 0.3 mM

AGP: >99% pure human α1-acid glycoprotein, Sigma G 9885
Blood glucose level (ob/ob mice [3]; [7]): 16.0 ± 0.5 mM
Blood glucose level (ob/ob mice [3]; [8]): 12.4 ± 0.6 mM

TF: greater than 98% pure commercial human transferrin, Sigma T 3309
Blood glucose level (ob/ob mice [3]; [7]): 15.8 ± 0.4 mM
Blood glucose level (ob/ob mice [3]; [8]): 13.6 ± 0.7 mM

C[N+](C)(C)CCC=C1c2ccccc2Sc2ccccc21.[I-] [CCcompound 19, N,N,N-trimethyl-3-(9H-thioxanthen-9-ylidene)-propane-1-aminium iodide]
Blood glucose (ob/ob mice [4]; [9]): 6.2 ± 0.9 mM
Blood glucose (ob/ob mice [4]; [10]): 9.3 ± 0.7 mM
Blood glucose (ob/ob mice [4]; 45 min after treatment, day 5): 7.7 ± 0.5 mM
Blood glucose (ob/ob mice [4]; 45 min after treatment, day 10): 9.3 ± 0.9 mM
Blood glucose (ob/ob mice [4]; 45 min after treatment, day 15): 10.4 ± 1.0 mM
Blood glucose (C57/BL/6 mice [5]; [11]): 2.1 ± 0.5 mM
Reduction of blood glucose level (C57/BL/6 mice [5]; [12]): 23%
Blood glucose (C57/BL/6 mice [5]; [13]): 5.7 ± 0.4 mM
Blood glucose (C57/BL/6 mice [5]; [14]): 4.6 ± 0.6 mM
Blood glucose (C57/BL/6 mice [5]; [15]): 3.1 ± 0.2 mM
Blood glucose (C57/BL/6 mice [5]; [16]): 2.2 ± 0.4 mM

CC[N+](C)(CC)CCOCc1ccc2sc3ccccc3c(=O)c2c1 [CCcompound 3]
Blood glucose (ob/ob mice [4]; [9]): 7.6 ± 0.7 mM
Blood glucose (ob/ob mice [4]; [10]): 9.1 ± 0.6 mM
Blood glucose (ob/ob mice [4]; 45 min after treatment, day 5): 8.6 ± 0.9 mM
Blood glucose (ob/ob mice [4]; 45 min after treatment, day 10): 11.0 ± 0.6 mM
Blood glucose (ob/ob mice [4]; 45 min after treatment, day 15): 12.6 ± 0.5 mM
Blood glucose (Wistar rats; rats starved 14 h, i.p. 30 min prior to glucose 3-g/kg i.p., 0 min): 4.73 ± 0.24 mM
Blood glucose (Wistar rats; rats, i.p. 30 min prior to glucose, 30 min): 9.36 ± 0.43 mM
Blood glucose (Wistar rats; rats, i.p. 30 min prior to glucose, 60 min): 6.66 ± 0.33 mM
Blood glucose (Wistar rats; rats, i.p. 30 min prior to glucose, 90 min): 5.71 ± 0.38 mM
Blood glucose (Wistar rats; rats, i.p. 30 min prior to glucose, 120 min): 5.43 ± 0.60 mM
Blood glucose (C57/BL/6 mice [5]; [11]): 1.7 ± 0.5 mM
Reduction of blood glucose level (C57/BL/6 mice [5]; [12]): 19%
Blood glucose (C57/BL/6 mice [5]; [13]): 6.6 ± 0.3 mM
Blood glucose (C57/BL/6 mice [5]; [14]): 5.0 ± 0.2 mM
Blood glucose (C57/BL/6 mice [5]; [15]): 3.6 ± 0.5 mM
Blood glucose (C57/BL/6 mice [5]; [16]): 2.7 ± 0.4 mM

B1: PALP: highly purified placental alkaline phosphatase (protein, UniProt P05187 23-506, looked up)
Alkaline phosphatase, …: IIPVEEENPDFWNREAAEALGAAKKLQPAQTAAKNLIIFLGDGMGVSTVTAARILKGQKKDKLGPEIPLAMDRFPYVALSKTYNVDKHVPDSGATATAYLCGVKGNFQTIGLSAAARFNQCNTTRGNEVISVMNRAKKAGKSVGVVTTTRVQHASPAGTYAHTVNRNWYSDADVPASARQEGCQDIATQLISNMDIDVILGGGRKYMFRMGTPDPEYPDDYSQGGTRLDGKNLVQEWLAKRQGARYVWNRTELMQASLDPSVTHLMGLFEPGDMKYEIHRDSTLDPSLMEMTEAALRLLSRNPRGFFLFVEGGRIDHGHHESRAYRALTETIMFDDAIERAGQLTSEEDTLSLVTADHSHVFSFGGYPLRGSSIFGLAPGKARDRKAYTVLLYGNGPGYVLKDGARPDVTESESGSPEYRQQSAVPLDEETHAGEDVAVFARGPQAHLVHGVQEQTFIAHVMAFAACLEPYTACDLAPPAGTTD
Blood glucose (C57/BL/6 mice [6]; 0 min): 3.7 ± 0.5 mM
Blood glucose (C57/BL/6 mice [6]; 30 min): 6.8 ± 0.3 mM
Blood glucose (C57/BL/6 mice [6]; 60 min): 5.3 ± 0.4 mM
Blood glucose (C57/BL/6 mice [6]; 120 min): 4.3 ± 0.5 mM
